Earlier results as cited in US10694749B2, “Insecticide formulation” (Wellmark International, priority 2016, dated 2020).

System: Mosquito Larvae
Details: after ingestion

## Bacillus thuringiensis israelensis [BTI]
  time to death of the first larvae after ingesting the bacteria: 15 to 20 min
